In this test the test system is 697B B-cell line, NF-kB luciferase reporter luminescence. The test is described as follows: inhibitors of B-cell NF-kB luciferase signal – 697B cells, luminescence, selectivity assay for T-cell antigen receptor NF-kB inhibitors, dose response (AID 489033).

Structures are written as SMILES. Active and inactive are the calls of the source. The rule behind the calls is not given here.

`COc1cc(NS(=O)(=O)c2ccc(OC)c(C)c2C)c(OC)cc1Cl`: the IC50 was > 80 µM (inactive).

As to `Cc1cccc(N2CCN(C(=O)c3ccc4[nH]c(C)c(C)c4c3)CC2)c1C`, the IC50 is > 80 µM (inactive).

For `CCN(CC)c1ccc(-c2nn3c(-c4ccccc4OC)nnc3s2)cc1`, the IC50 was > 80 µM (inactive).

Consider `CCOC(=O)c1[nH]c(C=O)c(C(=O)OCC)c1C`, for which the IC50 was 59.5 µM (inactive).

Consider `O=C(Sc1cccc2cccnc12)c1ccc(F)cc1`, for which the 50% inhibitory concentration (IC50) was 1.03 µM.

For `CCOC(=O)/C=C/S(=O)(=O)c1ccc(NC(C)=O)cc1`, the half-maximal inhibitory concentration (IC50) is 0.39 µM.

Turning to `CCOc1ccc2c(c1)OC(c1ccc(C)cc1)(C(F)(F)F)NC2=O` (centres undefined), the IC50 is > 80 µM (inactive).

Take `CCCN1C=CC(=C2C(=O)c3ccccc3C2=O)C=C1`: the IC50 was below 0.16 µM.

As to `COc1cccc(/C=N/Nc2ncnc3c2ncn3Cc2ccccc2)c1O`, the IC50 is 23.4 µM (inactive).

As for `CC(=O)O[C@H]1C(=O)[C@@]2(C)C([C@H](OC(=O)c3ccccc3)[C@]3(O)C[C@H](OC(=O)[C@H](O)[C@@H](NC(=O)c4ccccc4)c4ccccc4)C(C)=C1C3(C)C)[C@]1(OC(C)=O)CO[C@@H]1C[C@H]2O` (some centres undefined), the IC50 was > 80 µM (inactive).

For `CCOc1ccc(Br)cc1C1=CC(=O)C[C@H](c2ccc(OC)cc2)C1`, the IC50 was > 80 µM (inactive).

In the case of `COc1ccc(-c2c(C#N)c(N)nc3c2CCc2ccccc2-3)cc1OC`, the IC50 was 54.4 µM (inactive).

Take `O=Cc1cc2ccccc2nc1SCc1ccc(Cl)c(Cl)c1`: the IC50 is 48.8 µM (inactive).

On to `COc1ccc2c(c1)C(=O)N1[C@H]3c4cc(Br)ccc4OC[C@@H]3[C@H](c3ccccc3)[C@]1(C)C(=O)N2`, for which the IC50 is > 80 µM (inactive).

Regarding `Cc1nc(Nc2nc3c(c(=O)[nH]2)CCC3)nc2ccccc12`, the IC50 is 6.06 µM.

On to `CCCCCCCOc1ccc(OC(=O)c2ccncc2)cc1`, for which the IC50 is > 80 µM (inactive).

Consider `COC(=O)c1ccc(Oc2cc(C)nc(SC)n2)cc1`, for which the IC50 is > 80 µM (inactive).

In the case of `Cc1ccc2[nH]c(-c3cccc(F)c3)cc(=O)c2c1`, the IC50 was > 80 µM (inactive).

Turning to `CCOC(=O)C1CCN(S(=O)(=O)c2c(Cl)ccc3nonc23)CC1`, the IC50 was 1.06 µM.

Regarding `CCCCCCCCC[n+]1cccc2c3ccccc3ccc21`, the IC50 is 1.98 µM.

Turning to `COc1ccc(-c2csc(NC(=O)C3CCN(c4ncnc5sc(C)c(C)c45)CC3)n2)cc1OC`, the concentration for half-maximal inhibition (IC50) is 11.6 µM.

Regarding `CN(C)c1ccc(-c2nn3c(-c4ccccc4Cl)nnc3s2)cc1`, the IC50 was > 80 µM (inactive).

In the case of `CCOC(=O)C(C)Oc1cccc2c(=O)n(CC(=O)NCc3ccco3)ccc12` (centres undefined), the IC50 is > 80 µM (inactive).

Consider `Cc1nc2c(=O)n(C)c(=O)nc-2n(C)n1`, for which the IC50 was 3.36 µM.

For the molecule `O=c1cc(-c2ccccc2)[nH]c2cc(F)ccc12`, the IC50 is > 80 µM (inactive).

Take `COc1ccc(C2=NOC(C(=O)NCc3cccs3)C2)cc1OC` (centres undefined): the IC50 was > 80 µM (inactive).

Regarding `CC(=O)Nc1ccc(S(=O)(=O)N2CCSc3ccccc32)cc1`, the IC50 was > 80 µM (inactive).

For the molecule `Cc1c(C(=O)OCC(C)C)[nH]c2c1C(=O)CC(c1cccs1)C2` (centres undefined), the IC50 was > 80 µM (inactive).

For the molecule `COc1ccccc1N1CCN(C(=O)c2ccc(-c3ccc(Cl)cc3)o2)CC1`, the IC50 is 66.5 µM (inactive).

`Oc1ccc(Nc2nc3ccccc3nc2Nc2ccc(O)cc2)cc1`: the IC50 was 3.73 µM.

On to `CCOc1cc(C#N)c(NC(=O)c2cccnc2)cc1OCC`, for which the IC50 was > 80 µM (inactive).

Regarding `Cc1ccc(C(=O)c2cc([N+](=O)[O-])ccc2N2CCOCC2)c(C)c1`, the IC50 is > 80 µM (inactive).

In the case of `CC1=NNC(=O)/C1=C\c1cn(-c2ccccc2)nc1-c1ccc(Cl)cc1`, the IC50 is 6.48 µM.

Turning to `Cc1ccc(O)c(NC(=O)c2cc(-c3ccco3)on2)c1`, the IC50 was > 80 µM (inactive).

`CCOC(=O)c1[nH]c2c(c1C)C(=O)CC(c1ccc(F)cc1)C2` (centres undefined): the IC50 is > 80 µM (inactive).

For the molecule `Cc1ccnc2c1ccc1c(C)ccnc12`, the half-inhibitory concentration (IC50) is 10.1 µM.

As for `COc1cc(NS(=O)(=O)c2ccc(C)cc2)c2ncccc2c1`, the IC50 is 1.05 µM.

Regarding `O=C(NNc1ccnc2cc(Cl)ccc12)C1CCCCC1`, the IC50 was > 80 µM (inactive).

As to `COc1ccc(C(NC(=O)C(C)C)c2ccc3cccnc3c2O)cc1` (centres undefined), the IC50 was > 80 µM (inactive).

Turning to `Cc1ccsc1/C=N/NC(=O)c1cc(-c2ccncc2)nc2ccccc12`, the IC50 is 2.38 µM.

With `COc1ccc(S(=O)(=O)N2N=C(C)Oc3ccccc3C2=O)cc1`, the IC50 was > 80 µM (inactive).

Regarding `Cc1ccc(C(=O)N/N=C/c2ccc([N+](=O)[O-])s2)cc1`, the half-inhibitory concentration (IC50) was 4.21 µM.

As for `COC(=O)c1ccccc1NC(=O)CSc1nc(-c2ccco2)cc(C(F)(F)F)n1`, the IC50 is > 80 µM (inactive).

For `CCOC(=O)c1[nH]c2c(c1C)C(=O)CC(c1ccco1)C2` (centres undefined), the IC50 was > 80 µM (inactive).

For the molecule `Nc1nc(-c2ccccc2)cc(N2CCCCC2)n1`, the IC50 was > 80 µM (inactive).

`Cc1c(C(=O)OC2CCCC2)[nH]c2c1C(=O)CC(c1ccco1)C2` (centres undefined): the IC50 is > 80 µM (inactive).

In the case of `CCCC(=O)NC(c1ccc(C)cc1)c1ccc2cccnc2c1O` (centres undefined), the IC50 is > 80 µM (inactive).

For `Cc1cnc(NC(=O)c2ccc3c(c2)OCCO3)s1`, the half-maximal inhibitory concentration (IC50) is 1.08 µM.

With `CCOC(=O)N/N=C/c1c(C)nn(-c2cccc(C(F)(F)F)c2)c1Cl`, the IC50 was > 80 µM (inactive).

`O=S(=O)(Nc1ccc(F)cc1Cl)c1ccc(-c2cnc(C3CC3)o2)cc1`: the IC50 is 73.4 µM (inactive).

Take `CCCCCCCCCCn1c2c(c(=N)c3c1CCC3)CCC2`: the half-maximal inhibitory concentration (IC50) is 2.68 µM.

Take `O=C(Nc1ccc(C(F)(F)F)cc1)c1cccn(Cc2ccc3c(c2)OC(F)(F)O3)c1=O`: the IC50 was > 80 µM (inactive).

Take `COC(=O)c1c(NC(=O)c2ccc([N+](=O)[O-])o2)sc2c1CCN(C(C)C)C2`: the IC50 is 15 µM.

Consider `O=C(N[C@@H](Cc1ccccc1)C(=O)CCl)OCc1ccccc1`, for which the half-inhibitory concentration (IC50) is 5.69 µM.

Regarding `COc1cc(C(=O)OCCc2cc3ccccc3c(=O)o2)cc(OC)c1OC`, the IC50 was > 80 µM (inactive).

Take `CCCc1cc(C(=O)N/N=C/c2ccc(CC)s2)c2ccccc2n1`: the 50% inhibitory concentration (IC50) was 11.6 µM.

For `Cc1ccc(NC(=O)C2=C(c3ccccc3)S(=O)(=O)CCS2(=O)=O)cc1`, the half-inhibitory concentration (IC50) is 0.39 µM.

Turning to `COc1ccccc1C(=O)N(CCC1CCCN1C)c1nc2ccccc2s1` (centres undefined), the IC50 was > 80 µM (inactive).

As for `Cc1cc(C)c(S(=O)(=O)Nc2ccc3c4c(cccc24)CC3)c(C)c1`, the IC50 was > 80 µM (inactive).

In the case of `O=C(/C=C/c1cccc([N+](=O)[O-])c1)n1cnc2ccccc21`, the concentration for half-maximal inhibition (IC50) was 3.2 µM.

`CCn1c2ccccc2c2cc(NC(=O)c3cc(OC)c(OC)c(OC)c3)ccc21`: the IC50 is 18.5 µM.

As for `CC(Oc1ccc(Cl)cc1Cl)C(=O)Nc1ccncc1` (centres undefined), the IC50 is > 80 µM (inactive).

Regarding `CCCC(=O)NC(c1ccc(C(C)C)cc1)c1ccc2cccnc2c1O` (centres undefined), the IC50 was > 80 µM (inactive).

In the case of `COCCCNC(=O)C(=O)Nc1ccc2c(c1)N(S(=O)(=O)c1cccs1)CCC2`, the IC50 is > 80 µM (inactive).

As for `O=C(Nc1ccccc1Cl)/C(Cl)=C(\Cl)S(=O)c1ccccc1` (centres undefined), the half-inhibitory concentration (IC50) is 0.53 µM.

With `COc1ccc(C2=NOC(C(=O)NCc3ccc(F)cc3)C2)cc1OC` (centres undefined), the IC50 is > 80 µM (inactive).

With `CCN1/C(=C/C(C)=C/c2sc3ccccc3[n+]2CC)Sc2ccccc21`, the half-maximal inhibitory concentration (IC50) is 2.42 µM.

As to `COc1cc(C2C(C#N)=C(N)Oc3cc4c(cc32)OCO4)cc(OC)c1OC` (centres undefined), the IC50 was > 80 µM (inactive).

On to `CCOC(=O)c1[nH]c(C)c(C(=O)Nc2ccc(C)cc2C)c1C`, for which the IC50 was 42.3 µM (inactive).

Regarding `Cc1c(C(=O)OCc2ccccc2)[nH]c2c1C(=O)CC(c1ccco1)C2` (centres undefined), the IC50 was > 80 µM (inactive).

With `COc1ccc(OC)c2c1C(=O)C(Cl)=C(Cl)C2=O`, the IC50 is 4.03 µM.

With `CC1=C(C(=O)OCc2ccc3c(c2)OCO3)C(c2ccc(Cl)cc2)NC(=O)N1` (centres undefined), the IC50 is 0.46 µM.

On to `CCOc1ccccc1NC(=O)Cn1nnc(C(=O)NCc2ccco2)c1N`, for which the IC50 is > 80 µM (inactive).

On to `COc1ccc(C[C@H](N)C(=O)N[C@H]2[C@@H](O)[C@H](n3cnc4c(N(C)C)ncnc43)O[C@@H]2CO)cc1`, for which the 50% inhibitory concentration (IC50) is 1.62 µM.

Take `Cc1ccc(C)c(N=Nc2ccc(O)c3ncccc23)c1`: the half-inhibitory concentration (IC50) is 4.44 µM.

For `C=C(C)C(=O)O[C@H]1C/C(C)=C\C(=O)/C=C(\C)[C@H](O)[C@@H]2OC(=O)C(=C)[C@@H]21`, the concentration for half-maximal inhibition (IC50) was 1.06 µM.

As for `COc1ccc(CNS(=O)(=O)c2cc(-c3cc(C)no3)ccc2C(C)C)cc1`, the IC50 is > 80 µM (inactive).

For the molecule `CCOC(=O)N1CCN(C(=O)C2CCCN(Cc3nc(-c4ccc(Cl)cc4)oc3C)C2)CC1` (centres undefined), the IC50 is 33.9 µM (inactive).

Consider `CCOc1ccccc1NC(=O)CN(c1ccc(OC)cc1)S(=O)(=O)c1c(C)noc1C`, for which the IC50 was > 80 µM (inactive).

As for `COc1ccc(/C=c2/sc3n(c2=O)C(c2ccccc2OC)C2=C(N=3)c3ccccc3CC2)cc1O` (centres undefined), the IC50 was > 80 µM (inactive).

Turning to `Cc1noc(C)c1COc1cccc(C(=O)OCC(=O)N2CC(=O)Nc3ccccc32)c1`, the IC50 was > 80 µM (inactive).

Regarding `COc1cc2nc(CN3CC=C(c4ccccc4)CC3)[nH]c(=O)c2cc1OC`, the IC50 is 13.8 µM.

As for `c1ccc(-c2cccc(-c3ccccn3)n2)nc1`, the concentration for half-maximal inhibition (IC50) was 6.4 µM.

As for `CC(=O)c1c(C)[nH]c(C(=O)OCC(=O)Nc2ccc(C)cc2[N+](=O)[O-])c1C`, the IC50 is 11.3 µM.

For `O=C(c1cn(Cc2ccccc2)nc1-c1ccccc1)N1CCN(c2ccccn2)CC1`, the IC50 is > 80 µM (inactive).

Take `Cc1[nH]n(-c2ccccc2)c(=O)c1/C=N/Nc1nncc(-c2ccccc2)n1`: the IC50 is > 80 µM (inactive).

`CCOc1cccc(-c2nnc3n2N=C(c2cc(OC)ccc2OC)CS3)c1`: the IC50 was > 80 µM (inactive).

Regarding `CCn1c(C)cc(C(=O)CN2C(=O)c3ccccc3S2(=O)=O)c1C`, the IC50 is 0.74 µM.

Consider `O=C(Nc1ccc(S(=O)(=O)N2CCOCC2)cc1)c1ccc(CN2CCc3ccccc3C2)cc1`, for which the IC50 was > 80 µM (inactive).

For the origin of these results see PubChem BioAssay AID489033 (Sanford-Burnham Center for Chemical Genomics, 2010).
